Test results taken from patent US20230021483A1, “[…] […] METHOD AND CLASSIFICATION OF PHARMACEUTICAL COMPONENTS BY USING TRANSCRIPTOMES” (National Institutes of Biomedical Innovation, Health and …, priority 2016, published 2023).
“Also recorded” adds a separate entry of the source.

System: preferentially upregulated genes in LV, SP, LN
Test: Z-score-based differential gene expression analysis (adjuvant group- or adjuvant-associated genes, 40 module mapping, TargetMine annotation)
Assay type: in vivo, C57BL/6 mice
Details: for Rsad2 1436058_at (Group G1, Modules 20) / Shisa5 1423986_a_at (Group G1, Modules 20) / Shisa5 1437503_a_at (Group G1, Modules 20) / Stat1 1450033_a_at (Group G1, Modules 20) / Stat1 1450034_at (Group G1, Modules 20) / Tdrd7 1426716_at (Group G1, Modules 20) / Tor1aip2 1418115_s_at (Group G1, Modules 20) / Tor1aip2 1418116_at (Group G1, Modules 20) / Tor1aip2 1435526_at (Group G1, Modules 20) / Trim12a 1437432_a_at (Group G1, Modules 20) / Uba7 1426970_a_at (Group G1, Modules 20) / Adar 1425405_a_at (Group G1, Modules 20) / Adar 1434268_at (Group G1, Modules 20) / Ddx58 1436562_at (Group G1, Modules 20) / Ddx58 1456890_at (Group G1, Modules 20) / Eif2ak2 1422005_at (Group G1, Modules 20) / G3bp2 1421323_a_at (Group G1, Modules 20) / Gm9706///Isg15 1431591_s_at (Group G1, Modules 20) / H2-T10///H2-T22///H2-T9 1449875_s_at (Group G1, Modules 20) / Ifih1 1426276_at (Group G1, Modules 20) / Ifit1 1450783_at (Group G1, Modules 20) / Ifit3 1449025_at (Group G1, Modules 20) / Irf7 1417244_a_at (Group G1, Modules 20) / Irgm1 1418825_at (Group G1, Modules 20) / Mndal 1426906_at (Group G1, Modules 20) / Pml 1448757_at (Group G1, Modules 20) / Pml 1456103_at (Group G1, Modules 20) / Rnf213 1455500_at (Group G1, Modules 20): ID, LV
Summary of the method: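 Gene groups for each organ were built from combined z-score cutoffs across adjuvants, ranging from z>1 to z>3. Scores came from fold changes standardized per gene over the whole organ data set, with the three replicate z-scores added per adjuvant; sums above 3 marked preferential expression.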

What does the source list for `Nc1nc2c(ncn2[C@@H]2O[C@@H]3COP(=O)(O)O[C@H]4[C@@H](O)[C@H](n5cnc6c(=O)[nH]c(N)nc65)O[C@@H]4COP(=O)(O)O[C@H]3[C@H]2O)c(=O)[nH]1` [cdiGMP, Cyclic diguanylate monophosphate]?
Rsad2 1436058_at (Group G1, Modules 20) (sample x1): 2.39; Shisa5 1423986_a_at (Group G1, Modules 20) (sample x1): 0.72; Shisa5 1437503_a_at (Group G1, Modules 20) (sample x1): 1.05; Stat1 1450033_a_at (Group G1, Modules 20) (sample x1): 1.49; Stat1 1450034_at (Group G1, Modules 20) (sample x1): 0.88; Tdrd7 1426716_at (Group G1, Modules 20) (sample x1): 1.47; Tor1aip2 1418115_s_at (Group G1, Modules 20) (sample x1): 1.81; Tor1aip2 1418116_at (Group G1, Modules 20) (sample x1): 1.58; Tor1aip2 1435526_at (Group G1, Modules 20) (sample x1): 0.94; Trim12a 1437432_a_at (Group G1, Modules 20) (sample x1): 0.73; Uba7 1426970_a_at (Group G1, Modules 20) (sample x1): 0.53; Adar 1425405_a_at (Group G1, Modules 20) (sample x2): 1.67; Adar 1434268_at (Group G1, Modules 20) (sample x2): 1.83; Ddx58 1436562_at (Group G1, Modules 20) (sample x2): 0.88; Ddx58 1456890_at (Group G1, Modules 20) (sample x2): 1.45; Eif2ak2 1422005_at (Group G1, Modules 20) (sample x2): 1.38; G3bp2 1421323_a_at (Group G1, Modules 20) (sample x2): 1.5; Gm9706///Isg15 1431591_s_at (Group G1, Modules 20) (sample x2): 0.94; H2-T10///H2-T22///H2-T9 1449875_s_at (Group G1, Modules 20) (sample x2): 1.04; Ifih1 1426276_at (Group G1, Modules 20) (sample x2): 1.09; Ifit1 1450783_at (Group G1, Modules 20) (sample x2): 2.28; Ifit3 1449025_at (Group G1, Modules 20) (sample x2): 1.75; Irf7 1417244_a_at (Group G1, Modules 20) (sample x2): 1.21; Irgm1 1418825_at (Group G1, Modules 20) (sample x2): 1.29; Mndal 1426906_at (Group G1, Modules 20) (sample x2): 2.45; Pml 1448757_at (Group G1, Modules 20) (sample x2): 1.57; Pml 1456103_at (Group G1, Modules 20) (sample x2): 1.3; Rnf213 1455500_at (Group G1, Modules 20) (sample x2): 2.08; Rsad2 1436058_at (Group G1, Modules 20) (sample x2): 2.41; Shisa5 1423986_a_at (Group G1, Modules 20) (sample x2): 1.07; Shisa5 1437503_a_at (Group G1, Modules 20) (sample x2): 1.12; Stat1 1450033_a_at (Group G1, Modules 20) (sample x2): 1.44; Stat1 1450034_at (Group G1, Modules 20) (sample x2): 1.02; Tdrd7 1426716_at (Group G1, Modules 20) (sample x2): 1.15; Tor1aip2 1418115_s_at (Group G1, Modules 20) (sample x2): 1.67; Tor1aip2 1418116_at (Group G1, Modules 20) (sample x2): 1.33; Tor1aip2 1435526_at (Group G1, Modules 20) (sample x2): 0.83; Trim12a 1437432_a_at (Group G1, Modules 20) (sample x2): 0.83; Uba7 1426970_a_at (Group G1, Modules 20) (sample x2): 1.46; Adar 1425405_a_at (Group G1, Modules 20) (sample x3): 1.66; Adar 1434268_at (Group G1, Modules 20) (sample x3): 2.95; Ddx58 1436562_at (Group G1, Modules 20) (sample x3): 1.49; Ddx58 1456890_at (Group G1, Modules 20) (sample x3): 2.07; Eif2ak2 1422005_at (Group G1, Modules 20) (sample x3): 1.93; G3bp2 1421323_a_at (Group G1, Modules 20) (sample x3): 2.34; Gm9706///Isg15 1431591_s_at (Group G1, Modules 20) (sample x3): 2.02; H2-T10///H2-T22///H2-T9 1449875_s_at (Group G1, Modules 20) (sample x3): 2.06; Ifih1 1426276_at (Group G1, Modules 20) (sample x3): 1.65; Ifit1 1450783_at (Group G1, Modules 20) (sample x3): 2.4; Ifit3 1449025_at (Group G1, Modules 20) (sample x3): 2.34; Irf7 1417244_a_at (Group G1, Modules 20) (sample x3): 1.92; Irgm1 1418825_at (Group G1, Modules 20) (sample x3): 1.81; Mndal 1426906_at (Group G1, Modules 20) (sample x3): 2.76; Pml 1448757_at (Group G1, Modules 20) (sample x3): 2.16; Pml 1456103_at (Group G1, Modules 20) (sample x3): 2.58; Rnf213 1455500_at (Group G1, Modules 20) (sample x3): 3.16; Rsad2 1436058_at (Group G1, Modules 20) (sample x3): 2.39; Shisa5 1423986_a_at (Group G1, Modules 20) (sample x3): 1.57; Shisa5 1437503_a_at (Group G1, Modules 20) (sample x3): 1.32; Stat1 1450033_a_at (Group G1, Modules 20) (sample x3): 2.11; Stat1 1450034_at (Group G1, Modules 20) (sample x3): 2.07; Tdrd7 1426716_at (Group G1, Modules 20) (sample x3): 2.22; Tor1aip2 1418115_s_at (Group G1, Modules 20) (sample x3): 2.42; Tor1aip2 1418116_at (Group G1, Modules 20) (sample x3): 2.19; Tor1aip2 1435526_at (Group G1, Modules 20) (sample x3): 1.54; Trim12a 1437432_a_at (Group G1, Modules 20) (sample x3): 1.46; Uba7 1426970_a_at (Group G1, Modules 20) (sample x3): 1.41; interferon induction relative to adjuvants targeting the same receptor (LN, z-scores and 40 module mapping): strongest interferon inducer; also recorded: induced more interferon responses in vivo than the other sting ligands; preference, 1417252_at Ptgs2 (among cdiGMP/cGAMP/DMXAA, LN): cdiGMP; preference, 1417263_at Ptgs2 (among cdiGMP/cGAMP/DMXAA, LN): cdiGMP; preference, 1418424_at Tnfaip6 (among cdiGMP/cGAMP/DMXAA, LN): cdiGMP; preference, 1419132_at Tfr2 (among cdiGMP/cGAMP/DMXAA, LN): cdiGMP; preference, 1419508_at Ripk1 (among cdiGMP/cGAMP/DMXAA, LN): cdiGMP; preference, 1419534_at Olr1 (among cdiGMP/cGAMP/DMXAA, LN): cdiGMP; preference, 1419721_at Niacr1 (among cdiGMP/cGAMP/DMXAA, LN): cdiGMP; preference, 1421457_a_at Samsn1 (among cdiGMP/cGAMP/DMXAA, LN): cdiGMP; preference, 1421473_at Il1a (among cdiGMP/cGAMP/DMXAA, LN): cdiGMP; preference, 1421578_at Ccl4 (among cdiGMP/cGAMP/DMXAA, LN): cdiGMP; preference, 1421679_a_at Cdkn1a (among cdiGMP/cGAMP/DMXAA, LN): cdiGMP; preference, 1422054_a_at 5kil (among cdiGMP/cGAMP/DMXAA, LN): cdiGMP; preference, 1422305_at Ifnb1 (among cdiGMP/cGAMP/DMXAA, LN): cdiGMP; preference, 1423028_at Ifna2 (among cdiGMP/cGAMP/DMXAA, LN): cdiGMP; preference, 1424638_at Cdkn1a (among cdiGMP/cGAMP/DMXAA, LN): cdiGMP; preference, 1425687_at Cflar (among cdiGMP/cGAMP/DMXAA, LN): cdiGMP; preference, 1425837_a_at Ccrn4l (among cdiGMP/cGAMP/DMXAA, LN): cdiGMP; preference, 1427736_a_at Ccrl2 (among cdiGMP/cGAMP/DMXAA, LN): cdiGMP; preference, 1428027_at LOC100653389 (among cdiGMP/cGAMP/DMXAA, LN): cdiGMP; preference, 1428735_at Cd69 (among cdiGMP/cGAMP/DMXAA, LN): cdiGMP; preference, 1433508_at Klf6 (among cdiGMP/cGAMP/DMXAA, LN): cdiGMP; preference, 1434350_at Csrnp1 (among cdiGMP/cGAMP/DMXAA, LN): cdiGMP; preference, 1436387_at C330006P03Rik///Homer1 (among cdiGMP/cGAMP/DMXAA, LN): cdiGMP; preference, 1439349_at Sbno2 (among cdiGMP/cGAMP/DMXAA, LN): cdiGMP; preference, 1439680_at Tnfsf10 (among cdiGMP/cGAMP/DMXAA, LN): cdiGMP; preference, 1439981_at Tespa1 (among cdiGMP/cGAMP/DMXAA, LN): cdiGMP; preference, 1441843_s_at 5230400M03Rik (among cdiGMP/cGAMP/DMXAA, LN): cdiGMP; preference, 1442556_at --- (among cdiGMP/cGAMP/DMXAA, LN): cdiGMP; preference, 1443414_at C78513 (among cdiGMP/cGAMP/DMXAA, LN): cdiGMP; preference, 1444010_at Eif4e (among cdiGMP/cGAMP/DMXAA, LN): cdiGMP; preference, 1444598_at --- (among cdiGMP/cGAMP/DMXAA, LN): cdiGMP; preference, 1445534_at --- (among cdiGMP/cGAMP/DMXAA, LN): cdiGMP; preference, 1446245_at --- (among cdiGMP/cGAMP/DMXAA, LN): cdiGMP; preference, 1448325_at Ppp1r15a (among cdiGMP/cGAMP/DMXAA, LN): cdiGMP; preference, 1448724_at Cish (among cdiGMP/cGAMP/DMXAA, LN): cdiGMP; preference, 1449169_at Has2 (among cdiGMP/cGAMP/DMXAA, LN): cdiGMP; preference, 1449311_at Bach1 (among cdiGMP/cGAMP/DMXAA, LN): cdiGMP; preference, 1450297_at Il6 (among cdiGMP/cGAMP/DMXAA, LN): cdiGMP; preference, 1451340_at Arid5a (among cdiGMP/cGAMP/DMXAA, LN): cdiGMP; preference, 1453636_at Pcgf5 (among cdiGMP/cGAMP/DMXAA, LN): cdiGMP; preference, 1453851_a_at Gadd45g (among cdiGMP/cGAMP/DMXAA, LN): cdiGMP; preference, 1455197_at Rnd1 (among cdiGMP/cGAMP/DMXAA, LN): cdiGMP; preference, 1455899_x_at Socs3 (among cdiGMP/cGAMP/DMXAA, LN): cdiGMP; preference, 1457404_at Nfkbiz (among cdiGMP/cGAMP/DMXAA, LN): cdiGMP; preference, 1457888_at --- (among cdiGMP/cGAMP/DMXAA, LN): cdiGMP; preference, 1457944_at --- (among cdiGMP/cGAMP/DMXAA, LN): cdiGMP; preference, 1458376_at B930025B16Rik (among cdiGMP/cGAMP/DMXAA, LN): cdiGMP; preference, 1458589_at --- (among cdiGMP/cGAMP/DMXAA, LN): cdiGMP; preference, 1459144_at --- (among cdiGMP/cGAMP/DMXAA, LN): cdiGMP; adjuvant group-associated biological features (z-score selected genes, TargetMine and IPA upstream cytokine analyses): strongly associated with type I and type II interferon responses
